This is an account of results in article PMC4010122 (Journal of medicinal chemistry, 2008).

Molecules are shown by their SMILES.

What all share (format): biochemical
The target in one test is BRAF^WT (Homo sapiens, UniProt P15056). The test can be described thus: ELISA-based MEK phosphorylation assay. (An ELISA detects its analyte on a solid surface through an enzyme-linked reagent.)
Another test concerns the target T1, MST1 (Homo sapiens, UniProt Q13043).
T1 sequence (Q13043 1-487): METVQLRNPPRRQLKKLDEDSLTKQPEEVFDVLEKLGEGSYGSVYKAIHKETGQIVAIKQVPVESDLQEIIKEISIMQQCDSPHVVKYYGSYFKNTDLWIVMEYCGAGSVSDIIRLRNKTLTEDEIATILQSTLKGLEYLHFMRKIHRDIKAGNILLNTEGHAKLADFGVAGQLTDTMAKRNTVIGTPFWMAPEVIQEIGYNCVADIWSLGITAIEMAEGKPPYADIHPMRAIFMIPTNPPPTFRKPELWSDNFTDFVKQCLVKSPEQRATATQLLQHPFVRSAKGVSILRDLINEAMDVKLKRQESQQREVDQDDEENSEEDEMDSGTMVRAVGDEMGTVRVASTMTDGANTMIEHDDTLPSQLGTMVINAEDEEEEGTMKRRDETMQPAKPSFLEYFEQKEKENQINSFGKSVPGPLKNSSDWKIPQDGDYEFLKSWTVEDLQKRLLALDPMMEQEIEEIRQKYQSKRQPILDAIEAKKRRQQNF
The test can be described thus: Kinase profiling, MST1. The note with it: inhibitor concentration of 100 μM.

A further test deals with PAK4 (Homo sapiens, UniProt O96013). Put plainly: Kinase profiling, PAK4. The note with it: inhibitor concentration of 100 μM.
PAK4, sequence (O96013 whole entry, species assumed): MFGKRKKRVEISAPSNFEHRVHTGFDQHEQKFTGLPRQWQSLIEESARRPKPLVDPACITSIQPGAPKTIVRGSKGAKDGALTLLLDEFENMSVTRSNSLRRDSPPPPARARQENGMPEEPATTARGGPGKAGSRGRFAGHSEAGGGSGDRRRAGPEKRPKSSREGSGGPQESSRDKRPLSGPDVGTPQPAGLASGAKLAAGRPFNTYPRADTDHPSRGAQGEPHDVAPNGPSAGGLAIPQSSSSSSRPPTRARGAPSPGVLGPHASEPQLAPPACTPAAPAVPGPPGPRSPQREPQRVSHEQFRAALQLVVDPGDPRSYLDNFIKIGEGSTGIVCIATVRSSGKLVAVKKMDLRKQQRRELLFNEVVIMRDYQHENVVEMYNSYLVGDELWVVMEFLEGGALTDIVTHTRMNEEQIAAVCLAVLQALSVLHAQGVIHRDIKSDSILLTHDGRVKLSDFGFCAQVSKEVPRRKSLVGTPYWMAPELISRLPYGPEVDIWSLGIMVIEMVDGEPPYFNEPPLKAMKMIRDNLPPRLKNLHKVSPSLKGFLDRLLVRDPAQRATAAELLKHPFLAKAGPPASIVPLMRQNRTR
A further test concerns the target GSK3β (Homo sapiens, UniProt P49841). The test can be described thus: Kinase profiling, GSK3β. The note with it: inhibitor concentration of 100 μM.
The next test deals with PI3Kγ (Homo sapiens, UniProt P48736). The test can be described thus: Kinase profiling, PI3Kγ lipid kinase. The note with it: BRAF versus PI3Kγ.
PI3Kγ, sequence (P48736 whole entry, species assumed): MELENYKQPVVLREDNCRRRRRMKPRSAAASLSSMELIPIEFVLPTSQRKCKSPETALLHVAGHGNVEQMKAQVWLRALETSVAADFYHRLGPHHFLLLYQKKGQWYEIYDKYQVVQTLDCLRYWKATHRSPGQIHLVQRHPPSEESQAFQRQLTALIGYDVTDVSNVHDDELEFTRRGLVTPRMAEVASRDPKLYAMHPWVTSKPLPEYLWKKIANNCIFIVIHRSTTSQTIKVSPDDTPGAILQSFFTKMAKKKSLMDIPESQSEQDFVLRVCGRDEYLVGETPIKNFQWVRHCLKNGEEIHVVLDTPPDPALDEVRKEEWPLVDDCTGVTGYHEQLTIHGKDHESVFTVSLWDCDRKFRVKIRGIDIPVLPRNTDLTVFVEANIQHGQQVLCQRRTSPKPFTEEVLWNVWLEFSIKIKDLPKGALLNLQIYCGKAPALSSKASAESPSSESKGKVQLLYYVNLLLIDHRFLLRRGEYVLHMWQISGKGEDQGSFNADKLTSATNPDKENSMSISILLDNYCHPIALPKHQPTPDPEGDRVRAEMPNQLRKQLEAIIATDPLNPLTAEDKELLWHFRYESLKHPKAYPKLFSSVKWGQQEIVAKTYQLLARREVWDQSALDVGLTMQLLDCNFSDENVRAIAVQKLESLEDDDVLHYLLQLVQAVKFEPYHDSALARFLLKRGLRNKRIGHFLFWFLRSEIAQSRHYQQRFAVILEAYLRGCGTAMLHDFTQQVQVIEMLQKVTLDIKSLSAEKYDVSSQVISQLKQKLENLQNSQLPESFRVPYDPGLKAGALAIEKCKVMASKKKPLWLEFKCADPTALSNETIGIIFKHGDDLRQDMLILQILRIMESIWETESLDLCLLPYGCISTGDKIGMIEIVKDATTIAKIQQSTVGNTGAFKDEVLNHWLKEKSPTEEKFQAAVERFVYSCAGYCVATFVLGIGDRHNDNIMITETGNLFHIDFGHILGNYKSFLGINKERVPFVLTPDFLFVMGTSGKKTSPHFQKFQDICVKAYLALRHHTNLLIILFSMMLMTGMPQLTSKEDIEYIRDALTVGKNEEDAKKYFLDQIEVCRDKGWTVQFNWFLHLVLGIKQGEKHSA
Another test addresses Pim1 (Homo sapiens, UniProt P11309). Put plainly: Kinase profiling, Pim1. The note with it: inhibitor concentration of 100 μM.
The target of a further test is PAK1 (Homo sapiens, UniProt Q13153). Put plainly: Kinase profiling, PAK1. The note with it: inhibitor concentration of 100 μM.
PAK1, sequence (Q13153 whole entry): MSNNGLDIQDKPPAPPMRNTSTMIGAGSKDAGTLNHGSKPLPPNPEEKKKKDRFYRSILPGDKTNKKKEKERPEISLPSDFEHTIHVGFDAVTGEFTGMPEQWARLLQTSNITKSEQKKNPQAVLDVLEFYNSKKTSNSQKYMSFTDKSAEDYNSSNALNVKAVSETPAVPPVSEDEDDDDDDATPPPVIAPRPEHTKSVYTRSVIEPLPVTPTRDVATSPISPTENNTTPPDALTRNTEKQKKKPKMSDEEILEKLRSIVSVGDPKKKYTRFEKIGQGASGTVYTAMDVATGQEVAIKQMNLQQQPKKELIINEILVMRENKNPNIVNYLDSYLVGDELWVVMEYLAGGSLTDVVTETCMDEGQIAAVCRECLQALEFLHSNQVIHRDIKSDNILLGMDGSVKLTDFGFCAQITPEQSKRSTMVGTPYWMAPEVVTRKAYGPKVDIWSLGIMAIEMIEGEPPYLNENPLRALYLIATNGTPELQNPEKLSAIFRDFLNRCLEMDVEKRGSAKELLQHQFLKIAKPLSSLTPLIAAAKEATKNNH

BRAF^WT, sequence (P15056 433-726): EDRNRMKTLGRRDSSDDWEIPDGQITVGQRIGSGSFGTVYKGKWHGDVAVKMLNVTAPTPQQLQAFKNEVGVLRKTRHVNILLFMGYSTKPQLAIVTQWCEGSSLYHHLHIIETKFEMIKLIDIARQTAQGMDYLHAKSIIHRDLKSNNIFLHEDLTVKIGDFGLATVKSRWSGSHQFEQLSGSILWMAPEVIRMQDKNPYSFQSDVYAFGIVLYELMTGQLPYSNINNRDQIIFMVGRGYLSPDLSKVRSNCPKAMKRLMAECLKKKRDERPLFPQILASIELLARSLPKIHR
Pim1, sequence (P11309 whole entry, species assumed): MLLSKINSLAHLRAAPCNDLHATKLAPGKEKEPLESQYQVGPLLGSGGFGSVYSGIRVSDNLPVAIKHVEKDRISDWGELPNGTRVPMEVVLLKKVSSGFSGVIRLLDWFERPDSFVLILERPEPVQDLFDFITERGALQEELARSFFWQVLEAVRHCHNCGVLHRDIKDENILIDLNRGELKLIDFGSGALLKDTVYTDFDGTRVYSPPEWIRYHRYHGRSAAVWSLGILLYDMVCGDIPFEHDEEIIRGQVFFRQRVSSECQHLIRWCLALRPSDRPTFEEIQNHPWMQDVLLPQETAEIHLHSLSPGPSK
GSK3β, sequence (P49841 whole entry, species assumed): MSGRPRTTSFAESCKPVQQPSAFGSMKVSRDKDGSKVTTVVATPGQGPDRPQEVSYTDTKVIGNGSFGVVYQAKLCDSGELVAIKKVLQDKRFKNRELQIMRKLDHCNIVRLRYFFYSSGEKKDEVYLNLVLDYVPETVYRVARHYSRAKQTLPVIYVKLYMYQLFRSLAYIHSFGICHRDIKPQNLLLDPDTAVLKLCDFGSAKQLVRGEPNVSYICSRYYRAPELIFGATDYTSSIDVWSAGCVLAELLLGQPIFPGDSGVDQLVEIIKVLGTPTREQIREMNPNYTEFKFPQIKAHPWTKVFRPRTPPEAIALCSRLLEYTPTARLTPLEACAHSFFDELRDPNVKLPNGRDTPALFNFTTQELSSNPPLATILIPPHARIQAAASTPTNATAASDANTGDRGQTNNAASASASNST

As for `CC1Nc2nc(NC(=O)c3ccc[n+](C)c3)[nH]c(=O)c2N(C(=O)c2ccc[n+](C)c2)C1C` (stereo not shown) [compound 1], the remaining activity (as a rule, the signal under treatment as a percentage of the control signal) at 100 µM at BRAF^WT (read-out: BRAF kinase activity remaining (of wild-type activity)) was approximately 80%.

Consider `Cn1c(=O)[nH]c(=O)c2c1nc(N/N=C\c1ccc([N+](=O)[O-])cc1)n2Cc1ccccc1` [compound 32], for which the “reduction in BRAF inhibitor potency relative to compound 19” value on BRAF^WT was not below 20 fold.

Take `Cn1c(=O)[nH]c(=O)c2c1nc(N/N=C\c1cccc([N+](=O)[O-])c1)n2Cc1ccccc1` [compound 31]: the “reduction in BRAF inhibitor potency relative to compound 19” value at BRAF^WT is not below 20 fold.

With `Cn1c(=O)n(Cc2ccccc2)c(=O)c2c1nc(SCCO)n2Cc1ccccc1` [compound 24], the “inhibition against MST1” value against MST1 was “did not show significant inhibition”. The “inhibition against PAK4” value against PAK4 is “did not show significant inhibition”. Also, the “selectivity for BRAF over other representative protein kinases” value at BRAF^WT (versus GSK3β, Pim1, MST1, PAK1, PAK4) is “more than 50 fold”. Moreover, at GSK3β, the “inhibition against GSK3β” value is “did not show significant inhibition”. The “selectivity for BRAF over PI3K lipid kinases” value at PI3Kγ is more than 12 fold. In addition, on Pim1, the “inhibition against Pim1” value is reported as “did not show significant inhibition”. The “inhibition against PAK1” value on PAK1 is “did not show significant inhibition”.
